Data on nine compounds can be found in patent publication US10710964B2, “Organic electrolyte compounds for redox-flow batteries” (FUNDACIÓN CENTRO DE INVESTIGACIÓN COOPERATIVA DE ENERGÍAS …, priority 2015, dated 2020).

Common to all, as to format: physicochemical
Data set [1] is described as follows: Experimental density of the electrolyte solutions. The source says:
Considering the two electron-proton process taking place in the present redox molecules, for a constant amount of grams of salt the optimization of the final concentration will be a balance between the molecular weight and the packing density of the organic compounds in the electrolyte solution. Highest concentration values and subsequently of chemical-electrical energy density stored in the present systems would be achieved as higher the packing density and lower the molecular weight of the molecule. The experimental density of the present solutions containing the redox neutral salts were measured. Densities of 1.04 g/ml, 1.00 g/ml and 0.95 g/ml were measured for solutions 1.23 M of Alizarine SH in H2O, 1.17 M of Alizarine SH in H2O and 1.46 M of Alizarine SH in 0.1 M HClO4 respectively.

Data set [2] in a line: Solubility studies (maximum concentration in aqueous media). Particulars: for solubility: 0.1 M HClO4, room temperature; for solubility (concentration values): medium not given. The protocol: These were conducted in glass vials of 25 ml volume in which the organic electrolyte compound mass ranging between 15-30 mg approximately was dissolved in DI-H2O and also in the different supporting electrolytes. The procedure was performed in the following steps: after the addition of the solid, a small volume (usually starting from 25 μl) was added by using a micropipette, the suspension was vigorously shaken by hand until complete homogenization of the media in the whole vial (bottom part and walls) was observed. After that, the vials are left standing overnight. The day after, possible precipitation at the bottom of the vial was evaluated. If some solid appeared, the addition of more volume of solvent and/or supporting electrolyte was continued until the solid disappeared completely. […] The final concentration value was only calculated for those samples showing a stable solution after several weeks.

Data set [3] is described as follows: Cyclic voltammetry in cavity micro-electrode, three-electrode cell. Particulars: for shift of redox potential on sulphonation, lower oxidation state / shift of redox potential on sulphonation, upper oxidation state: 0.1 M HClO4, sulphonated form in comparison to the parent molecule. The protocol:
Attenuated Total Reflectance-Fourier Transform InfraRed (ATR-FTIR) spectra were recorded on Vertex 70 spectrometer (Bruker) in the range of wavelength of 4000-400 cm^−1. Differential Scanning Calorimetry measurements (DSC) were carried out on a TA Instruments Q2000 model in a sealed Al pan at a heating rate of 5° C. min^−1 in the temperature range between −80° C. and 100° C. The cyclic voltammetry measurements were performed in a cavity micro-electrode (CME) with an electrochemical interface area around a fraction of mm^2 and ohmic drop coming from the bulk of the electrolyte that can be neglected, allowing the use of high scan rates [C. Cachet-Vivier et al.; Electrochim. Acta 47, 181-189 (2001)]. The samples were studied electrochemically by using a three-electrode configuration cell in DI-H2O and the different supporting electrolytes with a platinum wire as counter electrode and Ag/AgCl or Hg/HgO as reference electrode depending of the acidic or basic pH of the media respectively.
The microcavity was filled with a homogenous mixture of active material (50 wt %) and carbon super C-65 (50 wt %) by applying pressure against an agate mortar. The cavity was cleaned by immersing the electrode in ethanol in an ultrasonic bath between experiments. For the CME, scan rates approximately an order of magnitude larger could be used without distortion usually seen in conventional cells [R. Lin et al., J. Electrochem. Soc. 1, A7-A12 (2009)]. All the experiments using CME were made three times for the same sample to check reliability. […] Cyclic voltammetry experiments were done from 10 mV/s to 1 V/s using a multichannel potentiostat/galvanostat (VMP3, Biologic). In order to make a direct comparison between the different samples, all current values were normalized to current values measured in the pure capacitive behavior region.

Where [4] appears, read: aqueous BR buffer at pH=7, room temperature.
Where [5] appears, read: pure/neat DI-H2O, room temperature.
The mark [6] stands for this setting: vs. Ag/AgCl ref. electrode, BR buffer pH=7.

In brackets after ≈: the same amount, converted by molar mass.

With `O=C1c2ccccc2C(=O)c2c1cc(S(=O)(=O)O)c(O)c2O` [Alizarin S. Red-H^+], the results for the density of solution in data set [1] (1.17 M solution in H2O), in data set [1] (1.23 M solution in H2O) and in data set [1] (1.46 M solution in 0.1 M HClO4) were 1.00 g/mL, 1.04 g/mL and 0.95 g/mL, respectively. The solubility in data set [2] was about 1500 mM (≈ 480 mg/mL). In data set [2], the “solubility (concentration values)” value worked out at 1600 mM (≈ 512 mg/mL).

For the compound `O=C1c2ccccc2C(=O)c2c1cc(S(=O)(=O)[O-])c(O)c2O.OC[P+](CO)(CO)CO` [Alizarin S. Red-TKMP], in data set [2], the solubility was about 1500 mM and the “solubility (concentration values)” value is 1600 mM.

Regarding `O=C1/C(=C2\Nc3ccc(S(=O)(=O)O)cc3C2=O)Nc2ccc(S(=O)(=O)O)cc21` [Indigo Carmine-H^+], the “separation of the pair of reversible reduction peaks” value in data set [3] (BR buffer pH=3) is on record as about 0.75 V. The “peak separation of the two redox peaks” value in data set [3] (BR buffer pH=7) and in data set [3] (neat DI-H2O) was about 1 V each time. Moreover, the “separation of both peaks” value in data set [3] (BR buffer pH=9, stabilized at cycle 10) is on record as about 0.8 V. The “anodic shift in DI-H2O relative to BR buffer pH=7” value in data set [3] (DI-H2O, pH ~6) is about 170 mV. Also, the “solubility (highest concentration)” value in data set [2] (setting [4]) is about 400 mM (≈ 169 mg/mL); in data set [2] (setting [5]), about 600 mM (≈ 253 mg/mL).

Take `O=C1C(=C2Nc3ccc(S(=O)(=O)[O-])cc3C2=O)Nc2ccc(S(=O)(=O)[O-])cc21.[Na+].[Na+]` [Indigo Carmine-Na^+, 3,3′-dioxo-2,2′-bis-indolyden-5,5′-disulfonic acid disodium salt]: the “anodic shift of both pairs of peaks relative to Indigo” value in data set [3] (BR buffer pH=7) is on record as “approximately 80 mV”.

Regarding `O=C1/C(=C2\Nc3ccc(S(=O)(=O)[O-])cc3C2=O)Nc2ccc(S(=O)(=O)[O-])cc21.OCC[N+](CCO)(CCO)CCO.OCC[N+](CCO)(CCO)CCO` [Indigo Carmine-TKEN], the “peak separation of the two redox peaks” value in data set [3] (BR buffer pH=7) turned out to be 1 V. Also, the “solubility (highest concentration)” value in data set [2] (setting [4]) and in data set [2] (setting [5]) was “up to 0.76 M” each time. For the same compound, the “solubility (concentration values)” value in data set [2] was “up to 0.76 M”.

As to `O=C1C(=C2Nc3ccc(S(=O)(=O)[O-])cc3C2=O)Nc2ccc(S(=O)(=O)[O-])cc21.OC[P+](CO)(CO)CO.OC[P+](CO)(CO)CO` [Indigo Carmine-TKMP], the “peak separation of the two redox peaks” value in data set [3] (BR buffer pH=7) was 1 V.

As for `O=C1/C(=C2\Nc3ccccc3C2=O)Nc2ccccc21` [Indigo, 2,2′-Bis(2,3-dihydro-3-oxoindolylidene), reference compound], in data set [3] (setting [6]), the “reduction peak at negative potential” value was −0.44 V and the “reduction peak at positive potential” value is 0.31 V.

With `O=C1c2ccccc2C(=O)c2c1ccc(O)c2O` [alizarin, 1,2-dihydroxy-9,10-anthraquinone, reference compound], in data set [3], the “shift of redox potential on sulphonation, lower oxidation state” value is about 50 mV and the “shift of redox potential on sulphonation, upper oxidation state” value is recorded as about 35 mV.

`O=C1c2ccccc2C(=O)c2c(O)ccc(O)c21` [quinizarin, 1,4-dihydroxy-9,10-anthraquinone, reference compound]: in data set [3], the “shift of redox potential on sulphonation, lower oxidation state” value is about 100 mV and the “shift of redox potential on sulphonation, upper oxidation state” value is listed as about 15 mV.

By solubility is commonly meant how much of the substance goes into solution per volume.
